Consider 11 compounds from ChEMBL document CHEMBL1201862, “PubChem BioAssay data set” (2004).

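Compound exposure: 48 hours, 5 concentrations, 96-well plates. The concentration for 50% growth inhibition is given as GI50.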 Active and inactive are the calls of the source. Rule as the data show it: active = GI50 up to about 1.1 µM and inactive = higher.

Some test systems named below: A498; BT-549; EKVX; HCT-116; HL-60; Hs-578T; MDA-MB-231; MDA-MB-435; MDA-N; Malme-3M; NCI-H226; PC-3; SF-295; SK-MEL-28; SK-MEL-5; SK-OV-3; SN12C; TK-10.
Common to all, as to test: growth of human tumour cells (NCI), 48 h

`CC1C2(C)OCC(C#N)(C(=N)O2)C1(C#N)C#N` (configuration not stated): the GI50 with A498 was 88.7 µM (inactive); in the experiment on BT-549, 35.2 µM (inactive); in the experiment on EKVX, 19.1 µM (inactive); in the experiment on HCT-116, 18.3 µM (inactive); in the experiment with HL-60, 15.6 µM (inactive); with Hs-578T, 17.9 µM (inactive). In addition, the GI50 in the experiment on MDA-MB-231 was 17.9 µM (inactive); in the experiment with MDA-MB-435, 28.6 µM (inactive); in the experiment with MDA-N, 18.3 µM (inactive); with Malme-3M it was 18.5 µM (inactive); in the experiment with NCI-H226, 67 µM (inactive); in the experiment on PC-3, 24.2 µM (inactive). Besides, the GI50 in the experiment on SF-295 was 78 µM (inactive); with SK-MEL-28, 24.8 µM (inactive); in the experiment with SK-MEL-5, 11.3 µM (inactive); in the experiment with SK-OV-3, > 100 µM (inactive); with SN12C it was 15.7 µM (inactive); in the experiment with TK-10, 37.1 µM (inactive).
In the case of `CCC1([N+](=O)[O-])CC2C=CC1C2` (configuration not stated), the GI50 was > 100 µM (inactive) in the experiment on A498; > 100 µM (inactive) in the experiment with BT-549; > 100 µM (inactive) with EKVX; > 100 µM (inactive) with HCT-116; 49.9 µM (inactive) in the experiment on HL-60; > 100 µM (inactive) with Hs-578T. Also, the GI50 with MDA-MB-231, in the experiment on MDA-MB-435, with MDA-N, with Malme-3M, with NCI-H226 and with PC-3 was > 100 µM (inactive) in each case. Also, the GI50 in the experiment with SF-295, with SK-MEL-28, in the experiment with SK-MEL-5, with SK-OV-3, in the experiment with SN12C and in the experiment on TK-10 was > 100 µM (inactive) each time.
Regarding `Cc1cn(C2CC(O)C(Cn3cc(Cn4ncc(=O)[nH]c4=O)nn3)O2)c(=O)[nH]c1=O` (configuration not stated), the GI50 in the experiment on A498, in the experiment on BT-549, in the experiment on EKVX, in the experiment on HCT-116, with HL-60 and in the experiment on Hs-578T was > 100 µM (inactive) throughout. For the same compound, the GI50 in the experiment with MDA-MB-231, in the experiment on MDA-MB-435, in the experiment with MDA-N, in the experiment with Malme-3M, in the experiment on NCI-H226 and in the experiment with PC-3 was > 100 µM (inactive) each time. In addition, the GI50 in the experiment with SF-295, in the experiment on SK-MEL-28, in the experiment with SK-MEL-5, in the experiment on SK-OV-3, in the experiment on SN12C and in the experiment with TK-10 was > 100 µM (inactive) throughout.
With `O=C(NCc1ccccc1)c1cc2ccccc2o/c1=N\c1ccccc1F`, the GI50 in the experiment with A498 was 38.6 µM (inactive); in the experiment with BT-549, > 100 µM (inactive); in the experiment with EKVX it was 27.7 µM (inactive); in the experiment on HCT-116, 23.4 µM (inactive); in the experiment with HL-60, > 100 µM (inactive); with Hs-578T it was 32.1 µM (inactive). In addition, the GI50 in the experiment on MDA-MB-231 was 17.6 µM (inactive); in the experiment with MDA-MB-435 it was 26.3 µM (inactive); in the experiment on MDA-N, 34.8 µM (inactive); in the experiment on Malme-3M it was 25.2 µM (inactive); in the experiment on NCI-H226, 31.6 µM (inactive); in the experiment with PC-3, 33.5 µM (inactive). In addition, the GI50 in the experiment with SF-295 is 22 µM (inactive); in the experiment on SK-MEL-28 it was 66.2 µM (inactive); with SK-MEL-5 it was 19.1 µM (inactive); with SK-OV-3, 16.5 µM (inactive); in the experiment on SN12C it was 28.9 µM (inactive); in the experiment with TK-10 it was 13.6 µM (inactive).
In the case of `O=C(NCCCNCCNC(=O)c1cc(-c2ccccc2)nc2ccccc12)c1cc(-c2ccccc2)nc2ccccc12`, the GI50 with A498 was 2.29 µM (inactive); in the experiment on BT-549 it was 11.6 µM (inactive); in the experiment on EKVX, 2.16 µM (inactive); with HCT-116, 1.68 µM (inactive); with HL-60, 1.59 µM (inactive); in the experiment with Hs-578T, 2.37 µM (inactive). Moreover, the GI50 in the experiment with MDA-MB-231 is 1.86 µM (inactive); in the experiment with MDA-MB-435, 1.72 µM (inactive); in the experiment on MDA-N, 1.87 µM (inactive); in the experiment with Malme-3M, 1.88 µM (inactive); with NCI-H226, 2.32 µM (inactive); in the experiment with PC-3, 1.68 µM (inactive). In addition, the GI50 was 1.73 µM (inactive) in the experiment on SF-295; 1.82 µM (inactive) in the experiment on SK-MEL-28; 1.64 µM (inactive) in the experiment with SK-MEL-5; 3.27 µM (inactive) in the experiment on SK-OV-3; 1.72 µM (inactive) in the experiment on SN12C; 1.66 µM (inactive) with TK-10.
Regarding `CC(C)NC(=O)OCCN=C1c2ccccc2C(Br)C(Br)c2ccccc21` (configuration not stated), the GI50 was 1.62 µM (inactive) in the experiment with A498; 10.4 µM (inactive) in the experiment on BT-549; 9.06 µM (inactive) with EKVX; 7.01 µM (inactive) with HCT-116; 1.05 µM (active) in the experiment with HL-60; 8.41 µM (inactive) in the experiment on Hs-578T. Moreover, the GI50 with MDA-MB-231 is 11.5 µM (inactive); with MDA-MB-435, 7.96 µM (inactive); in the experiment with MDA-N, 5.85 µM (inactive); with Malme-3M, 5.4 µM (inactive); with NCI-H226, 15.6 µM (inactive); in the experiment with PC-3, 11.6 µM (inactive). The GI50 with SF-295 was 19 µM (inactive); in the experiment on SK-MEL-28, 13.2 µM (inactive); in the experiment with SK-MEL-5, 7.19 µM (inactive); with SK-OV-3, 26.1 µM (inactive); in the experiment with SN12C, 12.6 µM (inactive); in the experiment on TK-10, 5.87 µM (inactive).
Regarding `O=c1c2ccccc2c2c1c1c3ccccc3c(=O)c1c1c3ccccc3c(=O)c21`, the GI50 with A498, with BT-549, in the experiment with EKVX, with HCT-116, with HL-60 and with Hs-578T was > 100 µM (inactive) each time. In addition, the GI50 in the experiment on MDA-MB-231, with MDA-MB-435, in the experiment with MDA-N, with Malme-3M, in the experiment with NCI-H226 and in the experiment with PC-3 was > 100 µM (inactive) throughout. The GI50 in the experiment with SF-295, in the experiment with SK-MEL-28, in the experiment on SK-MEL-5, in the experiment with SK-OV-3, in the experiment with SN12C and in the experiment on TK-10 was > 100 µM (inactive) in each case.
Regarding `N#CC(c1ccccc1)N(CCc1ccccc1)C(=O)c1ccccc1` (configuration not stated), the GI50 in the experiment with A498 was > 100 µM (inactive); with BT-549 it was > 56.2 µM (inactive); with EKVX, > 77.4 µM (inactive); in the experiment with HCT-116, > 74.8 µM (inactive); in the experiment with HL-60, > 100 µM (inactive); in the experiment on Hs-578T it was 26.2 µM (inactive). Further, the GI50 is 47.8 µM (inactive) in the experiment on MDA-MB-231; > 100 µM (inactive) in the experiment on MDA-MB-435; > 100 µM (inactive) in the experiment on MDA-N; > 72.1 µM (inactive) in the experiment on Malme-3M; > 58.7 µM (inactive) with NCI-H226; > 93.8 µM (inactive) with PC-3. Further, the GI50 in the experiment with SF-295 is 38.5 µM (inactive); in the experiment on SK-MEL-28, > 100 µM (inactive); in the experiment on SK-MEL-5 it was > 100 µM (inactive); in the experiment with SK-OV-3, 53.3 µM (inactive); with SN12C, > 100 µM (inactive); with TK-10, > 75.2 µM (inactive).
Turning to `CCOP(=O)(OCC)/C(=C/n1c(=S)[nH]c2ccccc21)C(=O)OC`, the GI50 in the experiment with A498 was > 100 µM (inactive); with BT-549, > 100 µM (inactive); in the experiment on EKVX it was > 100 µM (inactive); in the experiment with HCT-116 it was > 100 µM (inactive); in the experiment with HL-60, > 100 µM (inactive); with Hs-578T, 95.1 µM (inactive). Also, the GI50 with MDA-MB-231, in the experiment with MDA-MB-435, with MDA-N, in the experiment with Malme-3M, in the experiment on NCI-H226 and with PC-3 was > 100 µM (inactive) in each case. Besides, the GI50 in the experiment with SF-295, in the experiment with SK-MEL-28, in the experiment with SK-MEL-5, in the experiment on SK-OV-3 and in the experiment with SN12C was > 100 µM (inactive) throughout.
Regarding `COc1ccc(Nc2nc(N)c(C(=O)c3ccco3)s2)cc1`, the GI50 with A498 is 13.2 µM (inactive); in the experiment on BT-549, > 67.8 µM (inactive); with EKVX, > 58.3 µM (inactive); in the experiment on HCT-116, 9.23 µM (inactive); in the experiment on HL-60, 5.04 µM (inactive); with Hs-578T, 22.4 µM (inactive). The GI50 was > 88.1 µM (inactive) in the experiment on MDA-MB-231; 3.15 µM (inactive) in the experiment with MDA-MB-435; 4.11 µM (inactive) in the experiment with MDA-N; > 90.2 µM (inactive) with Malme-3M; 33.9 µM (inactive) in the experiment with NCI-H226; 53.6 µM (inactive) in the experiment with PC-3. The GI50 is 31.6 µM (inactive) in the experiment with SF-295; > 88.7 µM (inactive) in the experiment with SK-MEL-28; 14.5 µM (inactive) in the experiment with SK-MEL-5; 35 µM (inactive) with SK-OV-3; > 70.8 µM (inactive) in the experiment on SN12C; 10.8 µM (inactive) in the experiment on TK-10.
`O=C1/C(=C/c2ccc([N+](=O)[O-])cc2)CNC/C1=C\c1ccc([N+](=O)[O-])cc1`: the GI50 with A498 was 16.6 µM (inactive); in the experiment with BT-549, 2.69 µM (inactive); with EKVX, 9.86 µM (inactive); with HCT-116, 0.63 µM (active); with HL-60 it was 0.0944 µM (active); in the experiment with Hs-578T, 4.36 µM (inactive). In addition, the GI50 in the experiment on MDA-MB-231 was 2.69 µM (inactive); in the experiment on MDA-MB-435, 10.4 µM (inactive); with MDA-N, 6.27 µM (inactive); in the experiment with Malme-3M it was 46.5 µM (inactive); in the experiment on NCI-H226, 15 µM (inactive); in the experiment with PC-3 it was 6.7 µM (inactive). The GI50 in the experiment on SF-295 was 10.2 µM (inactive); with SK-MEL-28, 1.82 µM (inactive); in the experiment with SK-MEL-5, 10.8 µM (inactive); in the experiment on SK-OV-3, 48 µM (inactive); in the experiment with SN12C, 5.41 µM (inactive); in the experiment on TK-10, 33.1 µM (inactive).
